Source: the CheMixHub ionic liquid set
Several values for one entry are separate records, joined by “and”; a condition that tells them apart may be missing. Equal entries are not always repeated.

Test: xn = mol fraction of the nth substance listed
Settings: for electrical conductivity: 100 kPa

CC[n+]1ccn(C)c1C.F[B-](F)(F)F + CO
101.3 kPa
Settings | viscosity [mPa·s]
293.15 K, x1 = 0.1313 | 1.92
298.15 K, x1 = 0.09153 | 1.35
298.15 K, x1 = 0.2607 | 3.98
303.15 K, x1 = 0.03641 | 0.859
303.15 K, x1 = 0.1313 | 1.64
308.15 K, x1 = 0.06083 | 1.022
308.15 K, x1 = 0.09153 | 1.167
308.15 K, x1 = 0.1313 | 1.51
313.15 K, x1 = 0.1848 | 1.92
318.15 K, x1 = 0.3768 | 5.52
323.15 K, x1 = 0.03641 | 0.664
323.15 K, x1 = 0.09153 | 0.947
323.15 K, x1 = 0.1313 | 1.21
328.15 K, x1 = 0.09153 | 0.874
328.15 K, x1 = 0.1313 | 1.132
328.15 K, x1 = 0.3768 | 4.55
333.15 K, x1 = 0.1313 | 1.065
333.15 K, x1 = 0.1848 | 1.41

CCCC[N+](CCCC)(CCCC)CCCC.[Cl-] + CC[C@H](C)[C@H](N)C(=O)O
electrical conductivity [S/m]
Settings | 313.15 K | 323.15 K | 333.15 K | 343.15 K | 353.15 K
x1 = 0.8889 | 0.0522 | 0.0655 | 0.0876 | 0.1 | 0.119
x1 = 0.9 | 0.0263 | 0.045 | 0.0615 | 0.0789 | 0.105
x1 = 0.9091 | 0.0364 | 0.0499 | 0.072 | 0.0843 | 0.111

CCCC[NH3+].O=[N+]([O-])[O-] + O
Settings | viscosity
278.15 K, 101.33 kPa, x2 = 0.435 | 46.7 mPa·s
283.15 K, 101.33 kPa, x2 = 0.435 | 37.92 mPa·s and 48.9 mPa·s
288.15 K, 101.33 kPa, x2 = 0.435 | 31.29 mPa·s and 40.44 mPa·s
293.15 K, 101.33 kPa, x2 = 0.435 | 26.16 mPa·s and 33.68 mPa·s
298 K, 101 kPa, x2 = 0 | 108.5 mPa·s
298 K, 101 kPa, x2 = 0.294 | 33.93 mPa·s
298 K, 101 kPa, x2 = 0.801 | 3.93 mPa·s
298 K, 101 kPa, x2 = 0.9 | 2.18 mPa·s
298.15 K, 101.33 kPa, x2 = 0.435 | 22.32 mPa·s and 28.34 mPa·s
303.15 K, 101.33 kPa, x2 = 0.435 | 18.92 mPa·s and 23.98 mPa·s
308.15 K, 101.33 kPa, x2 = 0.435 | 16.33 mPa·s and 20.7 mPa·s
313.15 K, 101.33 kPa, x2 = 0.435 | 14.22 mPa·s and 17.85 mPa·s
318.15 K, 101.33 kPa, x2 = 0.435 | 12.47 mPa·s and 16.84 mPa·s
323.15 K, 101.33 kPa, x2 = 0.435 | 11.02 mPa·s and 13.73 mPa·s
328.15 K, 101.33 kPa, x2 = 0.435 | 9.79 mPa·s and 12.73 mPa·s
333.15 K, 101.33 kPa, x2 = 0.435 | 8.76 mPa·s and 10.31 mPa·s
338.15 K, 101.33 kPa, x2 = 0.435 | 7.87 mPa·s and 9.34 mPa·s
